# Source: a melting point compilation (Tetko et al.; mined from patent text by program, amines drawn as free bases though some values may be those of a salt)
row,SMILES,melting point [°C]
1,CCCc1nc(C=O)c(Cl)c(N)c1F,89 to 91
2,O=C(O)COc1ccccc1N1CCN(c2ccncc2)CC1,294 to 296
3,OCc1csc(Nc2ccc(Br)cn2)n1,207 to 209
4,N#Cc1ccc2nc(C(=O)NCc3cccc(CNC(=O)c4nc[nH]n4)c3)[nH]c(=O)c2c1,218 to 219
5,COc1ccc2c(c1)sc1nc(CO)cn12,202 to 205
6,CN1Cc2c(C#Cc3ccccc3)ncn2-c2cccc(Cl)c2C1=O,205 to 206
7,CCOC(=O)C1=C(CSSc2ccccc2)NC(C)=C(C(=O)OC)C1c1cccc([N+](=O)[O-])c1 (configuration not stated),132 to 133
8,CS(=O)(=O)NCCn1nccc1-c1ccc(Oc2ccc(F)cc2)cc1,96 to 98
9,CCCc1c(OCC(O)COc2ccc3c(=O)cc(C=CC(=O)O)oc3c2CCC)ccc(C(C)=O)c1O (configuration not stated),101 to 103
10,O=C(c1ccccc1)c1ccc(OCCCCBr)cc1,42 to 43
11,COC(=O)CC[C@H](NC(=O)CCCCCCC1CNc2nc(NC(=O)C(C)(C)C)nc(O)c2C1)C(=O)OC (some centres not stated),152 to 160
12,NC(=O)N1CCCC2=C1CCc1cc(Cl)ccc12,169 to 171
13,COc1ccc2cc(C(=O)C(C)O[Si](C)(C)C)ccc2c1 (configuration not stated),72 to 75
14,O=C(O)C1=CSC2C(=Cc3nc4ncc5c(n4n3)CCC3(C5)OCCO3)C(=O)N12 (configuration not stated),> 250
15,C=CC(=O)N1CCc2cc(OC)c(OC)cc2C12CCC(C(=O)OCC)(C(=O)OCC)CC2C1c2cc(OC)c(OC)cc2CCN1C(C)=O (configuration not stated),162 to 165
16,OC(CCCc1cccnc1)COc1ccc(C=Cc2ccccc2)cc1 (configuration not stated),110 to 111
17,O=[N+]([O-])c1cc(Oc2ccccc2)ccc1OCc1ccccc1,84 to 87
18,CN(C)S(=O)(=O)CCc1ccccc1S(N)(=O)=O,134 to 136
19,Cc1ccccc1NC(=O)Nc1ccc(NC(=O)C(CC(=O)Nc2ccc(C(=O)O)cc2)c2ccccc2)cc1 (configuration not stated),169
20,O=C(O)c1nn(-c2ccc(Cl)cc2Cl)c2c1SCc1cc(Cl)ccc1-2,262
21,COC(=O)[C@@H]1CCCN1S(=O)(=O)c1ccc(C)c(C(=O)Cl)c1C,92
22,CCNC(=O)c1cc(N)ccc1[Si](C)(C)C,143 to 145
23,Cc1c2c(nn1-c1ccccc1)c(Cl)nc1ccccc12,208 to 209
24,COC(=O)c1nc2ccccc2o1,101 to 102
25,COCOc1cc(Cl)ccc1-c1cc(-c2cccc(C(=O)O)c2)c(C#N)c(NC(=O)c2ccco2)n1,214 to 216

row,SMILES,melting point [°C]
1,O=c1c2cc(F)c(N3CCCC3)nc2n(-c2cccc(C(F)(F)F)c2)c(=O)n1O,136 to 138
2,CN(Cc1cc(C(F)(F)F)cc(C(F)(F)F)c1)C(=O)c1c(-c2ccc(F)cc2)c2cnccc2c(=O)n1C,136 to 138
3,Cc1cc(C)cc(NS(=O)(=O)c2ccc(N3CCNC3=O)cc2)c1,216 to 218
4,CN(C)CCN(C(=O)c1cccc([N+](=O)[O-])c1Br)c1ccnc2cc3c(cc12)OCO3,96 to 97
5,O=C(NO)c1ccc(OCCNS(=O)(=O)c2ccc(C(=O)Nc3ccc(Cl)c(-c4ccccn4)c3)c(Cl)c2)cc1,138 to 139
6,CCc1ccc(Nc2nc3cc(NC(=O)c4cccc(CCl)c4)ccc3o2)cc1,194 to 195
7,Cc1ccc(N2CC(=O)N(c3ccc(S(N)(=O)=O)cc3Cl)C2)cc1,223 to 226
8,O=C1c2ccccc2C(=O)N1C/C=C(\F)COc1ccc(Cl)cc1Cl,115 to 116
9,CCCCNC(=O)c1ccc(Cl)c(-n2nc(CCCC)n(Cc3ccc(-c4ccccc4S(=O)(=O)NC(=O)c4ccccc4Cl)cc3F)c2=O)c1,218 to 220
10,CCCCCCCCCCCCCCCC(=O)n1cc(F)c(=O)[nH]c1=O,98
11,COCCc1ccc(-c2ccc(I)cc2)cc1,97 to 99.4
12,CCOc1cc(C=C(Br)Br)ccc1OC,41 to 42
13,CCCC12CCC3C4=C(CCC3C1CCC2=O)CC(OC)=CC4 (configuration not stated),128 to 131
14,Cc1cc(N2CCN(Cc3ccc(F)cc3)C2=O)sc1C(=O)NCc1nc2ccccc2[nH]1,265 to 267
15,Cc1ccccc1-c1cc(=O)c2ccccc2o1,45.5 to 47.5
16,Cc1ccc(-c2nc(Cc3cc4cc(N(OCc5ccccc5)C(N)=O)ccc4o3)c(C)o2)cc1,77 to 80
17,COc1ccc(C(C)(C)CCC(=O)O)cc1NC(=O)C[C@H]1O[C@H](c2cccc(OC)c2OC)c2cc(Cl)ccc2N(CC(C)(C)CO)C1=O,173 to 174
18,Cc1cc(Oc2cccc(C(F)(F)F)c2)nn1C(=O)NCC1CCCO1 (configuration not stated),101 to 102
19,CCCN(CCC)CCc1ccc(O)c(N)c1,127 to 151
20,COc1ccc(Cc2cnc(N)nc2N)c(OC)c1O,246 to 248
21,CC(=O)c1ccc2c(c1)N(C)CCC2(C)C,46 to 48
22,CCCC1=C(C(=O)OCC)C(c2cccc3ccsc23)c2c[nH]nc2N1 (configuration not stated),166
23,Cc1ccnc(C(=O)c2[nH]c3cc(Cl)ccc3c2NC(=O)CCl)c1,224 to 225
24,Cc1cc(=O)n(-c2cc(OC(C)C)c(C)cc2F)c(=O)o1,122 to 124
25,COC(=O)c1ccc(OCCCC2Cc3c(c(OC)c(OC)c(OC)c3OC)C2)cc1,70 to 72

row,SMILES,melting point [°C]
1,CC(=O)N1CCc2ccccc2C1Cc1ccccc1N (configuration not stated),142 to 148
2,c1csc(-c2nc3cc(COc4ccc(CCCn5ccnc5)cc4)ccc3o2)c1,130 to 131
3,CC(C)(C)OC(=O)N1CCn2c(Cl)cc(C(N)=O)c2C1,223 to 225
4,CC(C)(C)OC(=O)NC1CCCCCC=CC2CC2(C(=O)NS(=O)(=O)C2CC2)NC(=O)C2CC(OC(=O)c3ccc(F)cc3)CN2C1=O (configuration not stated),154 to 156
5,CC(CO)(CO)NCc1c2ccc3ccccc3c2cc2ccsc12,212 to 215
6,COc1ccc(-c2cccc3c(C(C)C)c(C)nn23)c(Cl)c1,112 to 115
7,Nc1nc2n(C3OC(CO)C(O)C3O)[nH]cc-2c(=S)n1 (configuration not stated),222 to 224
8,CS(=O)(=O)c1ccc(CN(C2CCOCC2)S(=O)(=O)c2ccc(Cl)cc2)cc1,158 to 160
9,COc1ccc2snnc2c1S(=O)(=O)Cl,131 to 134
10,Cc1cc2c(-c3cn(C)c(C(F)(F)F)cc3=O)c(F)cc(Cl)c2o1,208 to 211
11,CCCCC(CC)COC(=O)C(C#N)=Cc1ccc(NC(=O)C(CC)CCCC)cc1 (configuration not stated),68
12,CC1CN(Cc2ccc(Cl)nc2)C(=C[N+](=O)[O-])N1 (configuration not stated),170 to 174
13,O=C(O)COc1cc(Cl)ccc1C(=O)NCc1ccc(OC(F)(F)F)cc1,184 to 185
14,NC(=O)COc1ccc(CN2C(=O)C3(COc4cc5c(cc43)OCCO5)c3ccccc32)cc1 (configuration not stated),225 to 227
15,FC(F)(F)c1cc(Nc2nc3ccccc3o2)ccc1Cl,199 to 200
16,CCCCCCCCc1ccc(CCC(CC)(CCOC(C)=O)NC(C)=O)cc1 (configuration not stated),108 to 110
17,CC1(C)Oc2ccc(C#N)cc2[C@@H](NC(=O)c2cscc2-n2cccc2)[C@@H]1O,174 to 175
18,OCc1nccc(N2CCCC2)n1,114 to 116
19,CCOC(=O)[C@H](CCc1ccccc1)NC(=O)C(C)(C)NC(=O)[C@@H](S)C1CCOCC1,157 to 158
20,COc1cc2cc(-c3cccnc3)nc(-c3ccccc3)c2cc1OC,176 to 177
21,CCNC(=O)N1C(=O)[C@H](O)[C@@H]1c1ccccc1,141 to 142
22,CCC(=O)Nc1ccc(-n2cc(CCCOc3c(CC(=O)O)cccc3OC)c(C(C)C)n2)nc1,147 to 148
23,O=c1c2ccccc2nc(-c2cc(-c3ccncc3)c(N3CCOCC3)s2)n1-c1ccccc1Cl,179 to 180
24,COC[C@@H]1Cc2ccccc2N1C(=O)OC(C)(C)C,173 to 175
25,CCCCCN1C(=O)C(CCC(=O)O)(NC(=O)c2cc3ccccc3n2CCC#N)c2ccccc21 (configuration not stated),125

row,SMILES,melting point [°C]
1,COc1ccc(-c2cc(C)c(N)c(CO)c2)cn1,80 to 82
2,N#CCc1ccccc1-c1ccc(C(=O)O)cc1,218 to 220
3,O=C1c2cc(OCc3ccc4ccccc4n3)ccc2CCC1Cc1ccccc1 (configuration not stated),117 to 118
4,COCCOc1ccc(CCCNS(C)(=O)=O)c(Oc2ncc(C(F)(F)F)cc2Cl)c1,89 to 90
5,c1cncc(CC[C@H]2CNCCN2)c1,104 to 110
6,Cc1ccc(S(=O)(=O)c2nc(C(N)=O)n[nH]2)cc1,148 to 150
7,CC(=O)Nc1ccnc(-c2ccncc2)n1,218 to 220
8,CN1CCN(c2ccc(Br)cc2)CC1,78 to 80
9,Fc1cc(F)cc(Cc2cccnc2S)c1,195 to 197
10,CCCCCCCCOc1ccc(-c2cnc(-c3ccc(O)c(F)c3F)nc2)cn1,130 to 132
11,N#Cc1nn(-c2c(Cl)cc(C(F)(F)F)cc2Cl)cc1C1(C(F)(F)C(F)(F)C(F)(F)F)CC1,95 to 96
12,O=C(O)c1ccc2ccc3ccc(C(=O)O)cc3c2c1,390
13,COC(=O)c1c(C(F)(F)F)[nH]c2c(OCc3ccccc3)cc3c(c12)C(CCl)CN3C(=O)OC(C)(C)C (configuration not stated),162
14,CCCN1N=C2C(=Cc3cccc(C(F)(F)F)c3)CS(=O)(=O)CC2C1c1cccc(C(F)(F)F)c1 (configuration not stated),190 to 191
15,Cn1cc(-c2cc(OC3CCCC3)c(Cl)cc2F)c(=O)cc1C(F)(F)F,152 to 154
16,COc1cc(NC(C)=O)c(Cl)cc1C(=O)NN1CCN2CCCCC2C1 (configuration not stated),200 to 201
17,CCn1c(Nc2cc(C(F)(F)F)ccc2C(F)(F)F)nc(C(F)(F)F)c(Cl)c1=O,144 to 146
18,CC(=O)OC1OCCC[C@@H]1NC(=O)[C@H](CC(C)C)NC(=O)OCc1ccccc1 (some centres not stated),142 to 143
19,Oc1cccc([C@H]2CCCC[C@H]2N2CCCC2)c1 (relative stereo),124 to 126
20,O=CC1(c2ccc(Br)cc2)CC=CO1 (configuration not stated),154
21,CC(=O)Nc1ccc2ccccc2c1-c1c(P(=O)(c2ccccc2)c2ccccc2)ccc2ccccc12,95.4
22,O=C(O)c1cc(-c2ccccc2S(=O)(=O)Cl)c2ccc3c(-c4ccccc4S(=O)(=O)Cl)cc(C(=O)O)nc3c2n1,> 300
